Data set [1] addresses erythrocyte KCa3.1 channels (Homo sapiens (Human), UniProt O15554). The experiment in a line: Erythrocyte KCa3.1 assay. The settings on record: human erythrocytes, A23187-activated KCa3.1; read-out: RBC K (in vitro) Human IC50 (μM) Potency category. Type of data set: cell-based. In short, it runs like this:
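Washed human erythrocytes (cytocrit 1.5%) in unbuffered salt solution at 37° C with 20 μM CCCP and test compound; channels activated by 0.33 μM A23187. Peak hyperpolarization tracked via extracellular pH gives fractional remaining K+ conductance; IC50 (μM) from Hill fit.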

The nature of data set [2]: physchem. The following applies: 25 °C, pH 7.4, aqueous buffer, kinetic from dmso stock. On the procedure: 2.79 g of K2HPO4 and 0.54 g of KH2PO4 was dissolved in 390 mL of milliQ water. pH was adjusted to 7.4 using 1N HCl/1N NaOH and final volume was made up to 400 mL with milliQ water.
In case of compounds not soluble/less quantity submission, 40/20/10Mm stocks were prepared and used for experiment.
Assay Procedure: • 245 μL of 50 mM phosphate buffer then 5 μL each of test compound/standards (80 mM) in their respective positions was added to the 1.1 mL 96 well plate. • DMSO Controls was prepared by taking 245 μL of 100% DMSO then 5 μL each of test compound in their respective positions and added to the 1.1 mL 96 well plate • Plate was incubated with mixing at 1600 RPM for 16 hours at room temperature (˜23 MC). • After incubation, samples were filtered using Millipore plates. • Filtrates were analysed by HPLC-UV.
Solubility is calculated using the following formula: […]

For data set [3] the following is noted: cited from earlier work.
Data set [4] relates to mouse model of ARDS. The following applies: treatment; cited from earlier work.

The structures appear in SMILES notation. Where “and” joins values, the source holds several entries; their conditions need not be identical. Equal entries are not always repeated.

As usually defined, the IC50 is the concentration that inhibits the measured activity by half. What is called solubility is how much of the substance goes into solution per volume. For the compound `CC(C)(N)CN(C(=O)C1CC1)C1(c2ccc(F)c(C(F)(F)F)c2)CC1` [N-(2-amino-2-methylpropyl)-N-(1-(4-fluoro-3-(trifluoromethyl)phenyl)cyclopropyl)cyclopropanecarboxamide], the IC50 in data set [1] is under 1 µM. The solubility at 16 h in data set [2] is 582 µg/mL and 1200 µM.
For the compound `CC(C)(N)CN(C1(c2ccc(F)c(C(F)(F)F)c2)CC1)S(C)(=O)=O` [N-(2-amino-2-methylpropyl)-N-(1-(4-fluoro-3-(trifluoromethyl)phenyl)cyclopropyl)methanesulfonamide], in data set [1], the IC50 is under 0.3 µM. The solubility at 16 h in data set [2] is 565 µg/mL and 1500 µM.
On to `NC1(CNC2(c3ccc(F)c(C(F)(F)F)c3)CC2)CC1` [N-((1-aminocyclopropyl)methyl)-1-(4-fluoro-3-(trifluoromethyl)phenyl)cyclopropan-1-amine], for which the IC50 in data set [1] is under 0.3 µM. Besides, in data set [2], the solubility at 16 h is 464 µg/mL and 1400 µM.
Take `Fc1ccc(C2(N(CC3CC3)C3CNC3)CC2)cc1C(F)(F)F` [N-(cyclopropylmethyl)-N-(1-(4-fluoro-3-(trifluoromethyl)phenyl)cyclopropyl)azetidin-3-amine]: the IC50 in data set [1] is under 0.3 µM. Besides, in data set [2], the solubility at 16 h is 679 µg/mL and 1500 µM.
With `Clc1ccccc1C(c1ccccc1)(c1ccccc1)n1cccn1` [TRAM-34], the Water solubility entry in data set [3] is given as “extremely low”. Also, in data set [4], the Gas exchange result is “improvement was also demonstrated”.
On to `NC(=O)C(c1ccccc1)(c1ccc(F)cc1)c1ccc(F)cc1` [senicapoc], for which the Water solubility entry in data set [3] is recorded as “extremely low”. The Gas exchange entry in data set [4] was “improvement was also demonstrated”.
